Laboratory results taken from patent publication US8735406B2, “8-oxodihydropurine derivative” (Dainippon Sumitomo Pharma Co., Ltd., priority 2009, dated 2014).
Structures can show the parent of a compound that is named as a salt. Where two headings read alike, the source gives them in different places.

Target: T1, FAAH (Rattus norvegicus, UniProt P97612)
T1 construct: Preparation of Rat Brain Membranes Preparations (FAAH Enzyme Solution); from tissue; host or cells: rat cerebrum (brain membrane preparation)
T1 sequence (P97612 1-579): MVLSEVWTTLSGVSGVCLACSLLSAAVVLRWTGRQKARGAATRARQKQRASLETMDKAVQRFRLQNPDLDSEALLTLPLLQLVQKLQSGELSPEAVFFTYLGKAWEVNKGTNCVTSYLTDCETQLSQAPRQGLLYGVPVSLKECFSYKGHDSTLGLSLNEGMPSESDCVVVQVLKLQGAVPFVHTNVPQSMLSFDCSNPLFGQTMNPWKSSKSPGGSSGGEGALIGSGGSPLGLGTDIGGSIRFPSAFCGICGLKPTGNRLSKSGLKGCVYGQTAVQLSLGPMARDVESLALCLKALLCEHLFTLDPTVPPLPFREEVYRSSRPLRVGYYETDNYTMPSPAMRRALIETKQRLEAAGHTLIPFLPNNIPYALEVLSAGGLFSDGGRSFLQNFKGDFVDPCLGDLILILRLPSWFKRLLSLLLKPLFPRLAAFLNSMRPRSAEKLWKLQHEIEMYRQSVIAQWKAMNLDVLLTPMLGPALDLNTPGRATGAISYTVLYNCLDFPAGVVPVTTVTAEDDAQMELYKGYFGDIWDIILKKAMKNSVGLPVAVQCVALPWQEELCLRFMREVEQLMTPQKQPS
Test: Determination of FAAH inhibitory activity in rat (rat brain membrane preparations, [3H]-anandamide hydrolysis)
Type: biochemical
Details: rat brain membrane preparations; for IC50: read-out: FAAH Inhibition IC50
Procedure, shortened: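 Rat cerebrum membranes (100 μg/mL protein) preincubated 10 min at 37 °C with compound (1% DMSO) in pH 7.6 Tris buffer with 1.5% BSA. Substrate 2 nM [3H]-anandamide plus 2 μM anandamide added for 10 min at 37 °C. [3H]-ethanolamine in the aqueous phase after chloroform/methanol extraction was scintillation counted; IC50 over 0.1 nM–1 μM.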

[1] = 100 nM test substance, read-out: FAAH Inhibition, Inhibition Rate at 100 nM
[2] = at 100 nM, read-out: FAAH Inhibition Inhibition Rate at 100 nM

Row | inhibition at 0.1 µM [1] | IC50 (test substance 0.1 nM to 1 μM) | FAAH Inhibition, Inhibition Rate at 100 nM (100 nM test substance, 0.1 µM) | inhibition at 0.1 µM [2] | IC50 | Structure (SMILES)
1 | 100% | 2 nM |  |  |  | COCc1ncc2c(n1)n(C)c(=O)n2C(=O)N1CC[C@H](Oc2ccccc2Cl)C1 [Example 491, 7-{[(3S)-3-(2-Chlorophenoxy)pyrrolidin-1-yl]carbonyl}-2-(methoxymethyl)-9-methyl-7,9-dihydro-8H-purine-8-one]
2 | 103% | 2 nM |  |  |  | COCc1ncc2c(n1)n(C)c(=O)n2C(=O)N1CC(COc2ccc(F)cc2)C1 [Example 492, 7-({3-[(4-Fluorophenoxy)methyl]azetidin-1-yl}carbonyl)-2-(methoxymethyl)-9-methyl-7,9-dihydro-8H-purine-8-one]
3 | 79% | 27 nM |  |  |  | CN(C)C(=O)n1c(=O)n(C)c2cnc(CCc3ccc(OC(F)F)cc3)nc21 [Example 493, 2-{2-[4-(difluoromethoxy)phenyl]ethyl}-N,N,7-trimethyl-8-oxo-7,8-dihydro-9H-purine-9-carboxamide]
4 | 98% | 11 nM |  |  |  | Cc1ccc(CCc2ncc3c(n2)n(C(=O)N(C)C)c(=O)n3C)cc1 [Example 494, N,N,7-Trimethyl-2-[2-(4-methylphenyl)ethyl]-8-oxo-7,8-dihydro-9H-purine-9-carboxamide]
5 |  | 25 nM | 94% |  |  | CN(C)C(=O)n1c(=O)n(C)c2cnc(CCc3cc(F)cc(F)c3)nc21 [Example 497, 2-[2-(3,5-Difluorophenyl)ethyl]-N,N,7-trimethyl-8-oxo-7,8-dihydro-9H-purine-9-carboxamide]
6 | 94% | 28 nM |  |  |  | CN(C)C(=O)n1c(=O)n(C)c2cnc(CCc3ccc(F)cc3F)nc21 [Example 506, 2-[2-(2,4-Difluorophenyl)ethyl]-N,N,7-trimethyl-8-oxo-7,8-dihydro-9H-purine-9-carboxamide]
7 | 66% | 52 nM |  |  |  | CN(C)C(=O)n1c(=O)n(C)c2cnc(CCc3cccc(OCC(F)F)c3)nc21 [Example 530, 2-{2-[3-(2,2-Difluoroethoxy)phenyl]ethyl}-N,N,7-trimethyl-8-oxo-7,8-dihydro-9H-purine-9-carboxamide]
8 | 53% | 99 nM |  |  |  | CN(C)C(=O)n1c(=O)n(C)c2cnc(CCc3ccc(F)cc3)nc21 [Example 533, 2-[2-(4-Fluorophenyl)ethyl]-N,N,7-trimethyl-8-oxo-7,8-dihydro-9H-purine-9-carboxamide]
9 | 51% |  |  |  |  | CN(C)C(=O)n1c(=O)n(C)c2cnc(CCc3ccc(OCC(F)F)cc3)nc21 [Example 538, 2-{2-[4-(2,2-Difluoroethoxy)phenyl]ethyl}-N,N,7-trimethyl-8-oxo-7,8-dihydro-9H-purine-9-carboxamide]
10 | 88% | 17 nM |  |  |  | CN(C)C(=O)n1c(=O)n(C)c2cnc(CCc3ccc(C(F)(F)F)cc3)nc21 [Example 540, N,N,7-Trimethyl-8-oxo-2-{2-[4-(trifluoromethyl)phenyl]ethyl}-7,8-dihydro-9H-purine-9-carboxamide]
11 | 98% | 15 nM |  |  |  | CN(C)C(=O)n1c(=O)n(C)c2cnc(CCc3cccc(OCC(F)(F)F)c3)nc21 [Example 552, N,N,7-Trimethyl-8-oxo-2-{2-[3-(2,2,2-trifluoroethoxy)phenyl]ethyl}-7,8-dihydro-9H-purine-9-carboxamide]
12 | 97% | 9 nM |  |  |  | CN(C)C(=O)n1c(=O)n(C)c2cnc(CCc3ccc(OCC(F)(F)F)cc3)nc21 [Example 553, N,N,7-Trimethyl-8-oxo-2-{2-[4-(2,2,2-trifluoroethoxy)phenyl]ethyl}-7,8-dihydro-9H-purine-9-carboxamide]
13 | 110% | 10 nM |  |  |  | Cn1c(=O)n(C(=O)N2CCC2)c2nc(CCc3ccc(C(F)F)cc3)ncc21 [Example 576, 9-(Azetidin-1-ylcarbonyl)-2-{2-[4-(difluoromethyl)phenyl]ethyl}-7-methyl-7,9-dihydro-8H-purine-8-one]
14 | 81% | 25 nM |  |  |  | Cn1c(=O)n(C(=O)N2CCC2)c2nc(CCc3cc(F)cc(F)c3)ncc21 [Example 580, 9-(Azetidin-1-ylcarbonyl)-2-[2-(3,5-difluorophenyl)ethyl]-7-methyl-7,9-dihydro-8H-purine-8-one]
15 | 87% | 94 nM |  |  |  | Cn1c(=O)n(C(=O)N2CCC2)c2nc(CCc3ccccc3F)ncc21 [Example 583, 9-(Azetidin-1-ylcarbonyl)-2-[2-(2-fluorophenyl)ethyl]-7-methyl-7,9-dihydro-8H-purine-8-one]
16 | 68% | 51 nM |  |  |  | Cn1c(=O)n(C(=O)N2CCC2)c2nc(CCc3ccc(F)cc3)ncc21 [Example 587, 9-(Azetidin-1-ylcarbonyl)-2-[2-(4-fluorophenyl)ethyl]-7-methyl-7,9-dihydro-8H-purine-8-one]
17 | 58% | 59 nM |  |  |  | Cn1c(=O)n(C(=O)N2CCC2)c2nc(CCc3ccc(OCC(F)F)cc3)ncc21 [Example 593, 9-(Azetidin-1-ylcarbonyl)-2-{2-[4-(2,2-difluoroethoxy)phenyl]ethyl}-7-methyl-7,9-dihydro-8H-purine-8-one]
18 |  |  |  | 96% | 9 nM | Cn1c(=O)n(C(=O)N2CCC2)c2nc(CCc3cccc(OCC(F)(F)F)c3)ncc21 [Example 612, 9-(Azetidin-1-ylcarbonyl)-7-methyl-2-{2-[3-(2,2,2-trifluoroethoxy)phenyl]ethyl}-7,9-dihydro-8H-purine-8-one]
19 |  |  |  | 95% | 12 nM | Cn1c(=O)n(C(=O)N2CCC2)c2nc(CCc3ccc(OCC(F)(F)F)cc3)ncc21 [Example 613, 9-(Azetidin-1-ylcarbonyl)-7-methyl-2-{2-[4-(2,2,2-trifluoroethoxy)phenyl]ethyl}-7,9-dihydro-8H-purine-8-one]

Row | inhibition at 0.1 µM [1] | IC50 (test substance 0.1 nM to 1 μM) | FAAH Inhibition, Inhibition Rate at 100 nM (100 nM test substance, 0.1 µM) | inhibition at 0.1 µM [2] | IC50 | Structure (SMILES)
20 |  |  |  | 81% | 28 nM | CN(C)C(=O)n1c(=O)n(C)c2cnc(CCCc3ccccc3)nc21 [Example 614]
21 |  |  |  | 96% | 10 nM | CN(C)C(=O)n1c(=O)n(C)c2cnc(CCC3CCCCC3)nc21 [Example 615]
22 |  |  |  | 99% | 10 nM | CN(C)C(=O)n1c(=O)n(C)c2cnc(CCCC3CCCCC3)nc21 [Example 616]
23 |  |  |  | 93% | 6 nM | CN(C)C(=O)n1c(=O)n(C)c2cnc(CCCC3CCCC3)nc21 [Example 617]
24 |  |  |  | 101% | 10 nM | CN(C)C(=O)n1c(=O)n(C)c2cnc(CCCCc3ccccc3)nc21 [Example 618]
25 |  |  |  | 103% | 9 nM | Cn1c(=O)n(C(=O)N2CCC2)c2nc(CCCC3CCCCC3)ncc21 [Example 619]
26 |  |  |  | 87% | 88 nM | Cn1c(=O)n(C(=O)N2CCC2)c2nc(CCc3ccc4c(c3)CCO4)ncc21 [Example 620]
27 |  |  |  | 48% | 105 nM | CCCc1ncc2c(n1)n(C)c(=O)n2C(=O)N1CC(Oc2ccccc2CC)C1 [Example 629]
28 |  |  |  | 102% | 10 nM | Cn1c(=O)n(C(=O)N2CC(c3ccc(F)cc3)C2)c2nc(C3CC3)ncc21 [Example 630]
29 |  |  |  | 77% | 36 nM | Cn1c(=O)n(C(=O)N2CC(c3ccccc3)C2)c2nc(C3CC3)ncc21 [Example 631]
30 |  |  |  | 84% | 31 nM | Cn1c(=O)n(C(=O)N2CC(c3cccc(F)c3)C2)c2nc(C3CC3)ncc21 [Example 632]
31 |  |  |  | 82% | 19 nM | CCCc1ncc2c(n1)n(C(=O)N1CC(c3cccc(F)c3)C1)c(=O)n2C [Example 633]
32 |  |  |  | 95% | 98 nM | CCc1ncc2c(n1)n(C(=O)N1CC(c3ccccc3)C1)c(=O)n2C [Example 634]
33 |  |  |  | 88% | 44 nM | CCc1ncc2c(n1)n(C(=O)N1CC(c3cccc(F)c3)C1)c(=O)n2C [Example 635]
34 |  |  |  | 94% | 78 nM | CCCc1ncc2c(n1)n(C(=O)N1CC(c3ccc(F)cc3)C1)c(=O)n2C [Example 636]
35 |  |  |  | 102% | 7 nM | CCCc1ncc2c(n1)n(C(=O)N1CC(c3ccccc3)C1)c(=O)n2C [Example 637]
36 |  |  |  | 95% | 12 nM | CN(C)C(=O)n1c(=O)n(C)c2cnc(CCOc3ccc(C(F)(F)F)cc3)nc21 [Example 638, N,N,7-trimethyl-8-oxo-2-{2-[4-(trifluoromethyl)phenoxy]ethyl}-7,8-dihydro-9H-purine-9-carboxamide hydrochloric acid salt]
37 |  |  |  | 105% | 8 nM | CN(C)C(=O)n1c(=O)n(C)c2cnc(CCOc3cccc(Cl)c3)nc21 [Example 641, 2-[2-(3-Chlorophenoxy)ethyl]-N,N,7-trimethyl-8-oxo-7,8-dihydro-9H-purine-9-carboxamide]
